# From patent US12595478B2, “Crispr-Cas systems having destabilization domain” (THE BROAD INSTITUTE, INC., priority 2016, dated 2026)
# Experiments:
# [1] = tested on: human FKBP12; conditions: FKBP12 mutant DD; cited from earlier work
# [2] = tested on: DHFR; assay: Binding of photocaged TMP derivative to DHFR; conditions: before exposure to light (NVOC group attached)
# [3] = tested on: ER50.Cas9.ER50; assay: Cas9-mediated eGFP knockout (eGFP disruption) in U20S.eGFP-PEST cells nucleofected with ER50.Cas9.ER50; assay type: cell-based; conditions: increasing concentrations 0.5-1000 nM, 48 h
# Text: FIG. 3A-3B. […] (a) Representative images of conditional control of Cas9-mediated eGFP knockout in U20S.eGFP-PEST cells. […] Error bars represent standard deviation from biological replicates (n=6).
# [4] = tested on: engineered Cas9 system comprising a functionalized guide with DHFR destabilization domain; assay: Induction of ASCL1 mRNA by engineered DD-Cas9 SAM with stabilizing ligand (FIG. 11); assay type: cell-based; conditions: cells transiently transfected with DD-Cas9 SAM, treated with stabilizing ligand
# Method: FIG. 11. […] Cells were transiently transfected with engineered DD-Cas9 SAM and ASCL1 mRNA was measured. Compared to untransfected cells, DD-Cas9-SAM induced expression of ASCL1 mRNA is observed.
# [5] = target: ER50.SaCas9.ER50 (Homo sapiens, UniProt P03372, G521R/L384M/M421G/N519S/T371A/Y537S); conditions: cells expressing ER50.SaCas9.ER50 treated with 40HT
# Text: Assessment of dose-responsiveness of DD-regulated SaCas9 gene editing activity.
# [6] = target: engineered Cas9-SAM system comprising a DD (ER50) (Homo sapiens, UniProt P03372, G521R/L384M/M421G/N519S/T371A/Y537S); conditions: ligand 4HT
# [7] = target: ER50.MS2.p65.HSF1 (Homo sapiens, UniProt P03372, G521R/L384M/M421G/N519S/T371A/Y537S); conditions: targeted to ASCL1; increasing concentrations of 40HT, 18 h, qPCR
# Text: Multidimensional ‘chemical’ control of endogenous transcript levels. […] DHFR.PP7.VP64 was targeted to ILIRN, and ER50.MS2.p65.HSF1 was targeted to ASCL1. […] Error bars represent s.e.m. from biological replicates (n=3; a,c) or ±s.d. across technical replicates (n=4; b,d).
# [8] = tested on: temperature-sensitive mutant of mammalian DHFR (DHFRts); conditions: cells expressing DHFRts; cited from earlier work
# [9] = tested on: Drosophila; assay: TMP-controlled gene drive in Drosophila for green body color; assay type: in vivo; conditions: in the presence of TMP, wt Cas9 for comparison, DMSO control ~50% (Mendelian inheritance)
# [10] = tested on: DHFR-SpCas9-DHFR
# [11] = tested on: human embryonic stem cells (hESCs); assay: Mutagenic NHEJ by double nickase in human embryonic stem cells; assay type: cell-based; conditions: Cas9-D10A and two gRNAs targeted to different strands at the same location, data not shown
# Text: In some embodiments, a vector comprises a regulatory element operably linked to an enzyme-coding sequence encoding a CRISPR protein (i.e. CRISPR/Cas system effector or CRISPR effector). […] The CRISPR enzyme is Cas9, and may be Cas9 from S. pyogenes or S. pneumoniae. In some embodiments, the CRISPR enzyme directs cleavage of one or both strands at the location of a target sequence, such as within the target sequence and/or within the complement of the target sequence. In some embodiments, the CRISPR enzyme directs cleavage of one or both strands within about 1, 2, 3, 4, 5, 6, 7, 8, 9, 10, 15, 20, 25, 50, 100, 200, 500, or more base pairs from the first or last nucleotide of a target sequence. In some embodiments, a vector encodes a CRISPR enzyme that is mutated to with respect to a corresponding wild-type enzyme such that the mutated CRISPR enzyme lacks the ability to cleave one or both strands of a target polynucleotide containing a target sequence. […] In some embodiments, a Cas9 nickase may be used in combination with guide sequenc(es), e.g., two guide sequences, which target respectively sense and antisense strands of the DNA target. This combination allows both strands to be nicked and used to induce NHEJ.
# [12] = tested on: dystrophin; conditions: average, across 48 weeks; cited from earlier work
# Chain of ER50.MS2.p65.HSF1 (P03372 with tags, fused parts or gaps T371A/L384M/M421G/N519S/G521R/Y537S limits assumed): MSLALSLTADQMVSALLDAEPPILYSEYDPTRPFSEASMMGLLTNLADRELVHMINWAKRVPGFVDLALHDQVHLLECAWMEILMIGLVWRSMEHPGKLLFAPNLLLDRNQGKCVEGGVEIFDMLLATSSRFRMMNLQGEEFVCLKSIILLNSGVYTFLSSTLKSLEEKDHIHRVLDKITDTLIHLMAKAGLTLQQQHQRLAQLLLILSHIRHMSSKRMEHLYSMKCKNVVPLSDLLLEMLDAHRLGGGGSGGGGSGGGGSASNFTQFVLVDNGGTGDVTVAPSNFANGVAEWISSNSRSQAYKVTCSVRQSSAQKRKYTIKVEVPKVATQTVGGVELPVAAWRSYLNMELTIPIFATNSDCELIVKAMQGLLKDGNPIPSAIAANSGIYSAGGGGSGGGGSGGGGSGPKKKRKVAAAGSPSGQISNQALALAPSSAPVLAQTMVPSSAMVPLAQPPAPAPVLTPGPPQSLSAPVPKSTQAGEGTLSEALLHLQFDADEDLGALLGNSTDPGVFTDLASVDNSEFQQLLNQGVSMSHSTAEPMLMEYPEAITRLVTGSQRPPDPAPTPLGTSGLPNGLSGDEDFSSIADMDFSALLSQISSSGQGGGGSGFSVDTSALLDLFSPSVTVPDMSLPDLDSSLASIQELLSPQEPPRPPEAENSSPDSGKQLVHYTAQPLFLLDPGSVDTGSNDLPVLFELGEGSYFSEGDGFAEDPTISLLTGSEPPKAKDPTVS
# Chain of engineered Cas9-SAM system comprising a DD (ER50) (P03372 305-549 T371A/L384M/M421G/N519S/G521R/Y537S limits assumed): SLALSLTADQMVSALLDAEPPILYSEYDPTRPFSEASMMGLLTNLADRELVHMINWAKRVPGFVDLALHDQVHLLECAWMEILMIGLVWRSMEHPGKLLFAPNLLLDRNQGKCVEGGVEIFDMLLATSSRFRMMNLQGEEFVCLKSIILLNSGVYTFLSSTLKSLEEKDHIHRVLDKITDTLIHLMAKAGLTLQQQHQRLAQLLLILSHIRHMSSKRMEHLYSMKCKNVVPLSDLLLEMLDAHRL
# Chain of ER50.SaCas9.ER50 (P03372 305-549 T371A/L384M/M421G/N519S/G521R/Y537S limits assumed): as above
compound,measurement,setting,value
CC[C@H](C(=O)N1CCCC[C@H]1C(=O)O[C@H](CCc1ccc(OC)c(OC)c1)c1cccc(OCCN2CCOCC2)c1)c1cc(OC)c(OC)c(OC)c1 [Shield-1],binding to and stabilization of the DD,[1],dose-dependent manner
COc1cc(COC(=O)Nc2ncc(Cc3cc(OC)c(OC)c(OC)c3)c(N)n2)c([N+](=O)[O-])cc1OC [TMP-NVOC],binding to DHFR,[2],prevents photocaged TMP-NVOC from binding to DHFR
4-hydroxytamoxifen [40HT],genome editing (dosability),[3],High dosability
same,ASCL1 mRNA,[4],significant increase
same,"nuclease activity (indel activity, Surveyor assay)",[5],dose dependent increase
same,SAM-dependent expression of ASCL1 mRNA,[6],Increased
same,endogenous gene upregulation (dose response),[7],Highly dose-responsive
CN(Cc1cnc2nc(N)nc(N)c2n1)c1ccc(C(=O)N[C@@H](CCC(=O)O)C(=O)O)cc1 [methotrexate],degradation of DHFRts,[8],inhibited degradation of the protein partially
"COc1cc(Cc2cnc(N)nc2N)cc(OC)c1OC [TMP, trimethoprim]",inheritance of the green-body color,[9],84%
same,SpCas9-mediated knockout of the ebony gene,[10]; TMP dose dependence,Dose-dependent
same,time post TMP removal from the fly food within which % ebony knockout is lowered,[10]; TMP removal from the fly food,≤ 24 h
double nickase: Cas9-D10A and two gRNAs targeted to different strands at the same location,efficiency of inducing mutagenic NHEJ relative to nuclease (regular Cas9 without D10 mutation),[11],about 50%
eteplirsen,dystrophin positive fibers compared to baseline,[12],47%
